These results are taken from US11604141B2, “Zinc-selective fluorescent probes for emission-ratiometric imaging” (Georgia Tech Research Corporation, priority 2017, dated 2023).

The structures appear in SMILES notation. Structures can show the parent of a compound that is named as a salt.

A short description of data set [1]: Excited-state pKa calculated using the Forster Cycle. Format: physicochemical. Conditions: calculated with the Forster Cycle. From the text: To circumvent the issue of excited-state protonation of the fluorophore, the inventors synthesized a chromis-1 compound 1, whose structure lacked the bis(2-pyridylmethyl)amine chelating moiety but incorporated an O-alkylsulfonate group to enhance water solubility, to determine the unperturbed ground-state pKa of the pyridyl acceptor.

The nature of data set [2]: Spectrophotometric pH titration, determination of protonation constants. Format: physicochemical. Conditions: aqueous 0.1 M KCl solution, 25° C., fit to a single protonation, read-out: ground-state pKa (pKH1) of the pyridyl acceptor. How it is done:
FIG. 12. Spectrophotometric pH titration of compound 1 at 25° C. in aqueous buffer (5 mM PIPBS, 0.1 M KCl, 5 mM KOH, pH 5.6). Black arrows indicate the change in absorbance after each aliquot of HCl was added. The absorbance from 250-500 nm was recorded as a function of pHe (−log[H3O^+]), and the data were analyzed by non-linear least squares fitting to a single protonation to yield an average pKH1=4.49±0.002 (n=3).
FIG. 13. Spectrophotometric pH titration of compound 2 at 25° C. in 0.1 M KCl. Black arrows indicate the change in absorbance after each aliquot of HCl was added. The absorbance (250-500 nm) was recorded as a function of pHc (−log[H3O^+]), and the data were analyzed by non-linear least squares fitting to a single protonation to yield an average pKH1=2.34±0.002 (n=3).
Protonation constants were determined as concentration constants (log KH) based on potentiometric titrations using a combination double junction glass electrode. […] From the experimental emf data, the endpoint, electrode potential, and slope were determined using Gran's Method as implemented in the GLEE software package (pKw=13.78, μ=0.1 M KCl).^1 The calibration procedure was performed prior to each potentiometric titration, and the experimental electrode potential and slope that were used to calculate the experimental p[H] were derived as the average of the emf data from three independent titrations. […]

Data set [3] is described as follows: Determination of fluorescence quantum yields (referenced to quinine sulfate). The format is physicochemical. Conditions: neutral form, 10 mM PIPES, 100 mM KCl, pH 7.0; sodium salt. How it is done:
Determination of Fluorescence Quantum Yields. Fluorescence quantum yields of 1, 2, 3b and chromis-2 (4) were determined in aqueous buffer (10 mM PIPES, 0.1 M KCl) at pH 7.0 by a 4-point measurement over an OD range of 0.1-0.4 using a […], with fluorimeter excitation at 365 nm. For probes 3b and chromis-2, the solutions containing the free forms were supplemented with 20 μM EDTA (from a 30 mM stock solution in diH2O) to sequester adventitious Zn(II), whereas to determine the Zn(II)-bound forms, the solutions were supplemented with 20 μM ZnSO4.7H2O to ensure complete saturation of the fluorophore. Fluorescence quantum yields for all fluorophores were determined using quinine sulfate (Df=0.546 in 1.0 N H2SO4) as a fluorescence standard.^2 To determine the quantum yield of 3a, single-point measurements were performed in aqueous buffer (10 mM PIPES, 0.1 M KCl, pH 7.0) supplemented with 100 μM 4:1 DMPC:DMPG liposomes and at a probe concentration of 2 μM. The quantum yields were also referenced to quinine sulfate with an OD matching that of 3a (2 μM) in liposomes.

A short description of data set [4]: Fluorescence solvent deuterium-isotope studies (D2O vs H2O buffer). Format: physicochemical. On the procedure:
Fluorescence Deuterium-Isotope Studies of Compounds 1 & 2. Comparison of the fluorescence intensities of compounds 1 and 2 were conducted in deuterated and non-deuterated buffer (10 mM PIPES, 100 mM KCl, pH/D 7.0, 25° C.). A 3.0-mL solution of aqueous buffer was supplemented with 10 μM of each compound (from 3 mM stock solutions in H2O), and after thorough mixing via magnetic stirring, fluorescence spectra of 1 were acquired over the spectral window of 380-700 nm with excitation at […] and analogous fluorescence spectra of 2 were acquired over the spectral window of 380-650 nm with excitation at […].
Fluorescence Comparison of 3b and chromis-2 (4). Fluorescence comparison measurements of 3b and chromis-2 were conducted in deuterated and non-deuterated buffer (10 mM PIPES, 100 mM KCl, pH/D 7.0, 25° C.). A quartz cuvette with a 1-cm path length containing 3.0 mL of aqueous buffer was supplemented with 5 μM 3b (from a 3 mM stock solution in H2O), and after a 30-second equilibration via magnetic stirring, a fluorescence spectrum was acquired over the spectral window of 380-700 nm with excitation at 361 nm. The probe was then saturated with 5 μM ZnSO4.7H2O (from a 3 mM stock solution in H2O), and a fluorescence spectrum was acquired. This was repeated for 3b in deuterated buffer, but with supplementation of 5 μM ZnSO4.7H2O from a 3 mM stock solution in D2O. […]

Data set [5] in a line: Steady-state absorption and fluorescence spectroscopy, molar ratio titration with Zn(II). The format is physicochemical. On the procedure: General Spectroscopic Methods. All buffers and stock solutions used for spectroscopic measurements were prepared using either HPLC-grade water (JT Baker) or 18.2 MΩ.cm Mili-Q water and filtered through a 0.2 μm filter to remove interfering dust particles or fibers. UV-Vis measurements were performed on a Varian Cary Bio50 spectrophotometer with a constant temperature accessory (Peltier) at 25° C. Fluorescence measurements were performed with a PTI fluorimeter equipped with a 75 W xenon arc lamp excitation source and a photomultiplier detection system (PMT voltage was 1100 V for all experiments). Fluorescence spectra were corrected for the spectral response of the detection system and for the spectral irradiance of the excitation source (via a calibrated photodiode). For all experiments, both UV-Vis and fluorescence, a 1-cm path length quartz cuvette was used, except for quantum yield determinations, which were performed with a 10-cm path length quartz cuvette for absorbance measurements.
Molar Ratio Titration of Probe 3b with Zn(II). […] After each aliquot, the solution was equilibrated for 30 seconds by magnetic stirring, and an absorbance (spectral window: 250-500 nm) (FIG. 14A) and fluorescence spectrum (excitation: 361 nm, spectral window: 380-700 nm) (FIG. 14B) were acquired.
Molar Ratio Titration of Chromis-2 with Zn(II). […] After each aliquot, the solution was equilibrated for 30 seconds by magnetic stirring, and an absorbance (spectral window: 250-500 nm) and fluorescence spectrum (excitation: 361 nm, spectral window: 380-700 nm) were acquired.

Data set [6] relates to labile Zn(II) pools in live NIH 3T3 mouse fibroblasts. Description: Ratiometric TPEM imaging of labile Zn(II) in live cells. Format: cell-based. How it is done: FIG. 25A-25B. Ratiometric imaging of labile Zn(II) pools in live NIH 3T3 mouse fibroblasts with chromis-2 by TPEM (excitation at 720 nm). (FIG. 25A) Left: Phase contrast image (DIC) and fluorescence intensity images acquired with 425-462 nm (BP1) and 478-540 nm (BP2) bandpass filters, respectively. Right: Intensity ratio image with R=BP2/BP1. (FIG. 25B) Left: Ratio images (BP2/BP1) prior (at 3 min) and after addition of 50 μM ZnSO4 and 5 μM pyrithione (at 9 min). […] Right: Time course of the average intensity ratio change for the ROI indicated with a white circle in the left panel. The asterisks indicate time points for the respective ratio images shown to the left. Scale bars: 40 μm.
To evaluate the Zn(II)-dependent ratiometric response of chromis-2 within the chemical complexity of a live cell, we performed a perfusion experiment with NIH 3T3 mouse fibroblasts as model system (FIG. 25). To this end, fibroblast cells were cultured in Dulbecco's modified Eagle's medium (DMEM, Lonza) supplemented with 10% bovine serum (Gemini), penicillin/streptomycin (50 IU/mL), 200 μM L-glutamine, and 100 μM sodium pyruvate at 37° C. under an atmosphere of humidified air containing 5% CO2. For imaging experiments, cells were grown to 70% confluency on MatTek glass bottom culture dishes pre-coated with poly-L-lysine using phenol red-free DMEM (10% bovine serum, 50 IU/mL penicillin/streptomycin, 200 μM L-glutamine, and 100 μM sodium pyruvate). After replacing the growth medium with serum-free DMEM containing chromis-2 (10 μM), cells were incubation for 30 minutes at 37° C. (5% CO2 atmosphere), and the incubation solution was again replaced with pre-warmed full media. Cells were imaged in an atmospheric chamber at 37° C., […], and 5% CO2 using a Zeiss LSM confocal NLO 710 microscope equipped with a femtosecond pulsed Ti:sapphire laser. Scanning fluorescence micrographs were acquired with excitation at 720 nm, and the integrated emission intensity was simultaneously collected through two band pass filters between 425-462 nm and 478-540 nm. The corresponding ratio-images were derived with ImageJ based on the integrated photon counts on a pixel-per-pixel basis (FIG. 25A, right). […] Although the fluorescence intensity distribution appears uneven, including distinct punctate localizations, the corresponding ratio-image indicates a rather even fractional saturation with an average ratio R of 0.64±0.2.

The conditions of data set [7]: in 1N H2SO4; cited from earlier work.
The nature of data set [8]: UV-vis absorption spectra in methanol. The format is physicochemical. Conditions: methanol at 298 K, relative to compound I. From the text:
FIG. 26: UV-vis absorption spectra of compounds I, […] in methanol at 298 K.
UV-vis Spectral Characterization of Compounds I, II, and III.

Where [9] appears, read: Neutral, 10 mM PIPES, 100 mM KCl, pH 7.0.

For orientation: pKa means the pH at which an ionisable group is half protonated. As for `O=S(=O)([O-])CCCOc1ccc(-c2cnc(-c3ccccn3)s2)cc1.[Na+]` [compound 2, 3-(4-(2-(pyridin-2-yl)thiazol-5-yl)phenoxy)propane-1-sulfonate sodium salt], the pKa in data set [1] was 9.4. Besides, the “excited-state pKa (pKa*)” value in data set [1] (sodium salt) is given as 9.5. For the same molecule, in data set [2], the pKa stood at 2.34. In data set [3], the “ΦF fluorescence quantum yield” value came out at 0.80. In data set [4] (D2O versus H2O buffers), the “solvent deuterium isotope effect on emission (in words)” value was “identical emission profiles”. Also, in data set [5] (setting [9]), the “Abs λmax” value is 345 nm, the “Em λmax” value stood at 467 nm and the ε is on record as 2.25 10^4 M^−1cm^−1. Also, in data set [5] (Protonated, 0.1N HCl (pH 1.0)), the “Abs λmax” value is on record as 386 nm, the “Em λmax” value was 565 nm and the ε is listed as 2.05 10^4 M^−1cm^−1.

For `COc1ccc(-c2cnc(-c3cccc(CN(Cc4ncccn4)Cc4ncccn4)n3)s2)cc1` [chromis-2], the “increase of intensity ratio upon ZnSO4 and pyrithione” value in data set [6] (NIH 3T3) is recorded as “more than 4 fold”. The “average intensity ratio R (BP2/BP1), initial” value in data set [6] (NIH 3T3, 10 μM probe, excitation 720 nm, before additions) is on record as 0.64±0.2. For the same molecule, in data set [6] (NIH 3T3, 50 μM ZnSO4 and 5 μM pyrithione), the “intensity ratio R after ZnSO4 and pyrithione” value is on record as 2.36±0.6. The “intensity ratio R after TPEN” value in data set [6] (NIH 3T3, 100 μM TPEN) is on record as 0.55±0.2.

Regarding `C=C[C@H]1C[N@@]2CC[C@H]1C[C@H]2[C@H](O)c1ccnc2ccc(OC)cc12` [quinine sulfate], the “ΦF of fluorescence standard” value in data set [7] is given as 0.546.

For `COc1ccc(-c2ccc(-c3cnc(-c4ccccn4)s3)s2)cc1` [Compound III], the “change of UV-vis absorption spectrum (in words)” value in data set [8] is given as “red-shifted absorption spectrum”.

On to `CN(C)c1ccc(-c2cnc(-c3ccccn3)s2)cc1` [Compound II], for which, in data set [8], the “change of UV-vis absorption spectrum (in words)” value is “red-shifted absorption spectrum”.

Turning to `O=S(=O)([O-])CCCOc1ccc(-c2cnc(-c3ccncc3)s2)cc1.[Na+]` [compound 1, 3-(4-(2-(pyridin-4-yl)thiazol-5-yl)phenoxy)propane-1-sulfonate sodium salt], the pKa in data set [1] was roughly 11.7. Moreover, the pKa in data set [2] turned out to be 4.49 ± 0.002. In data set [3], the “ΦF fluorescence quantum yield” value was 0.65. Further, the “increase in fluorescence intensity in D2O relative to H2O” value in data set [4] (10 mM PIPES, 0.1 M KCl, pH/D 7.0, 25° C.) was found to be 18%. In data set [5] (setting [9]), the “Abs λmax” value was 346 nm, the “Em λmax” value is given as 489 nm and the ε is 1.80 10^4 M^−1cm^−1. For the same molecule, in data set [5] (Protonated, 0.1N HCl (pH 1.0)), the “Abs λmax” value worked out at 397 nm, the “Em λmax” value is listed as 582 nm and the ε is 1.96 10^4 M^−1cm^−1.
